In US5753681A, “Treatment and prophylaxis of pancreatitis” (Sankyo Company, Limited, priority 1996, dated 1998):

Tested on: plasma lipase
Assay: Effect of long term treatment on plasma lipase activity
Format: in vivo, male WBN/Kob rats
Conditions: 9.5 months; for Plasma Lipase Activity: control 33.7 ± 7.8
From the text: In pancreatitis, secretion of digestive enzymes is impaired and delivery of digestive enzymes to the duodenum is reduced. In addition, digestive enzymes leak into the blood and their level in the blood and urine increase. Accordingly, the extent of pancreatitis can be estimated by measuring the amount of digestive enzymes which have leaked into the blood (Methods of Clinical Examination: Kinbara Publisher).
The measurement of digestive enzymes may also be carried out by conventional procedures. For example, after the test drug mixed into powdered feed has been administered to male WBN/Kob rats for a definite period, the blood may be collected and the lipase activity (one of the digestive enzymes) in the plasma may be measured.
The test animals were male WBN/Kob rats. Each group of test animals contained 6 animals, and the animals were used for the experiment when they had reached 12 weeks old. The animals were fed with powdered feed F2 mixed with 0.2% or 0.05% of troglitazone for 9.5 months. These groups are hereinafter referred to as "the 0.2% group" and "the 0.05% group", respectively. The average doses of the compound during this period were 120 mg/kg/day and 30 mg/kg/day, respectively. Meanwhile, another six rats (control group) were fed with the powdered feed F2 only. After the rats had been fed with the feeds for 9.5 months, each rat was decapitated and its blood was collected. The blood serum was separated and the plasma lipase level was measured using an autoanalyser (type 7250, manufactured by Hitachi Ltd.).

## Cc1c(C)c2c(c(C)c1O)CCC(C)(COc1ccc(CC3SC(=O)NC3=O)cc1)O2 (stereo not drawn) [troglitazone, 5-[4-(6-Hydroxy-2,5,7,8-tetramethylchroman-2-ylmethoxy)benzyl]thiazolidine-2,4-dione]
0.05% group, 30 mg/kg/day in feed
  Plasma Lipase Activity: 17.5 ± 2.2 IU/l
0.2% group, 120 mg/kg/day in feed, *p < 0.05
  Plasma Lipase Activity: 13.2 ± 1.0 IU/l
Both the 0.2% group and the 0.05% group, vs. control group
  Plasma lipase activity (in words): significant decrease
